Where “and” joins values, the source holds several entries; their conditions need not be identical. Equal entries are not always repeated. Where no end group is shown, it is not given here.
Legend:
superior rectus muscle = conditions: rabbit, in vivo
[1] = tested on: neuromuscular junctions in orbicularis oculi muscle; conditions: rabbit, in vivo
neuromuscular junction = conditions: in vivo; cited from earlier work
[2] = tested on: neuromuscular junctions in rabbit extraocular muscle; conditions: in vivo; cited from earlier work

Substance	muscle force in response to electrical stimulation (superior rectus muscle)	combined total muscle neuromuscular junction density, orbicularis oculi muscle [1]	increase of combined total muscle neuromuscular junction density [1] [fold]	neuromuscular junction density, preseptal region [1]	neuromuscular junction density, pretarsal region [1]	preseptal neuromuscular junction density relative to control [1]	return of normal neuromuscular junction activity (neuromuscular junction) [%]	change in number of neuromuscular junctions in the treated area [2]	neuromuscular junction density compared to saline control (in words) [1]	neuromuscular junction density, orbicularis oculi muscle [1]
botulinum toxin A	variable response, with some showing force equal to the saline-treated control muscles	5.9±0.43 /mm^2	~3	4.4±01 /mm^2 and 2.9±0.4 /mm^2 and 5.23±0.7 /mm^2	4.0±0.21 /mm^2 and 5.7±0.8 /mm^2	between about two and three times greater than control	20	doubling of neuromuscular junctions		
corticotropin releasing factor (SEEPPISLDLTFHLLREVLEMARAEQLAQQAHSNRKLMEII; ends and bridges not checked; UniProt P06850 154-194, looked up) [CRF]									not significantly different from the density in the control orbicularis oculi muscles	2.39±0.23 /mm^2

From patent US8791072B2 (priority 2011, dated 2014)
